In publication PMC7582727, “Functional Impact of BeKm-1, a High-Affinity hERG Blocker, on Cardiomyocytes Derived from Human-Induced Pluripotent Stem Cells” (International Journal of Molecular Sciences, 2020):
Entries after “also recorded” stand apart in the source; their conditions may differ. Positions of bridges follow the written chain, without caps; N, C: chain ends. Residues, ends and D or L forms follow the SMILES beside them.

Legend:
human hERG channel = human hERG channel (Homo sapiens, UniProt Q12809); test: in vitro; settings: human
Sequence of human hERG channel (Q12809 whole entry): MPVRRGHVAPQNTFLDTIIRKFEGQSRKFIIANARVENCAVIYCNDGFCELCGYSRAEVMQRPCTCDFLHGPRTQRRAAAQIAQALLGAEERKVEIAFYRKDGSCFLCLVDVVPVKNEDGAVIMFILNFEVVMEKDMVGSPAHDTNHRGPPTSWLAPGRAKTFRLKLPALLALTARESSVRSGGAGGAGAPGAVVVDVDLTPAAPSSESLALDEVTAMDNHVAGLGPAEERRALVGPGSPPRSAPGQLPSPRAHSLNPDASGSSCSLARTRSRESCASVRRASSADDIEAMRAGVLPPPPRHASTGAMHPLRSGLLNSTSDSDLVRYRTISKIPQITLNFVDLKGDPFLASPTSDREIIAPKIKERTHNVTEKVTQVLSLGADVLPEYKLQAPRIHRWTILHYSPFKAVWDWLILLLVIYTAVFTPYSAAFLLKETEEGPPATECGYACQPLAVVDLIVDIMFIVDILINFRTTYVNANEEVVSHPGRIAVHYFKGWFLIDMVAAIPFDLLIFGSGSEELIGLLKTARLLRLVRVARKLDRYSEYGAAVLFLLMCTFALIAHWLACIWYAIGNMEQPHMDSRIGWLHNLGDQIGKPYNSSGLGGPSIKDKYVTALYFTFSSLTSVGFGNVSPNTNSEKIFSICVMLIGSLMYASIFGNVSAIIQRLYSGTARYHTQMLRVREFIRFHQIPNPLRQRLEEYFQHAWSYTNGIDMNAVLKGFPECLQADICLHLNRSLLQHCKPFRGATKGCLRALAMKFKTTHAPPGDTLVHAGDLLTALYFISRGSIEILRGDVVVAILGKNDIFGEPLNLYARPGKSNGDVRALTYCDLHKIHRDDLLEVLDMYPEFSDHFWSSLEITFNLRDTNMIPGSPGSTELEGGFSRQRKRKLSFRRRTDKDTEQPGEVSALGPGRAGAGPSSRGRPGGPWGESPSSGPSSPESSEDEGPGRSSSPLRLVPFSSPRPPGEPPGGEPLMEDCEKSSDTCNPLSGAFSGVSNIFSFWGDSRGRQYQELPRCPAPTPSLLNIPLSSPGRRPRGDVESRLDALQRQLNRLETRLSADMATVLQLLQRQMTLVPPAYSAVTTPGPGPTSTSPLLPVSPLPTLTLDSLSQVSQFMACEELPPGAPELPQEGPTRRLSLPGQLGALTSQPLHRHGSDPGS
Procedure: (§1) Voltage pulses and whole-cell recordings were achieved using the PatchControl384 v1.5.3 software (Nanion Technologies, Munich, Germany) and the Biomek v1.0 interface (Beckman Coulter, Villepinte, France). […] After cell catching, sealing, whole-cell formation, liquid application, recording, and data acquisition were all performed sequentially and automatically. […] A single concentration of peptide was tested on each cell for building the full-inhibition curves.

[1] = target: human hERG channel (Kv11.1) (Homo sapiens, UniProt Q12809); test: in vitro
Sequence of human hERG channel (Kv11.1) (Q12809 whole entry): as above
Procedure: as §1

hiPS-CMs monolayer = test: Electric field potential of hiPS-CM monolayers (CardioExcyte96); format: cell-based, human
Text: The excitability abnormalities recorded on single hiPS-CM APs should translate into larger abnormalities when these cells are interacting with each other in monolayers. To assess this issue, we investigated the electrical excitability of hiPS-CM monolayers using the CardioExcyte96 system (Nanion). This system monitors both the electric field potential (EFP), which reflects the concerted electrical activity of the cell monolayer, and the impedance changes due to cell contractions, which will be described below. […] As saturating concentrations of BeKm-1 (100 nM) induced the arrest of spontaneous APs in individual cells, we were interested to see what may happen on a monolayer of hiPS-CMs.
hiPS-CMs: All experiments were performed on the human-induced pluripotent stem cell (hiPSC) clone C2a that has been previously characterized, including cardiac differentiation and electrophysiology data. Cells were expanded on stem cell-qualified matrigel-coated plates (0.05 mg/mL; BD Bioscience, Le Pont de Claix, France) and cultured in StemMACS iPS-BREW XF medium (Miltenyi Biotec, Paris, France). Cells were passaged every […] using Gentle Cell Dissociation Buffer (StemCell Technologies, Grenoble, France). Prior to differentiation, cells were cultured as a monolayer in StemMACS iPS-brew supplemented with 1 × Y-27632 Rho-associated, coiled-coil containing protein kinase (ROCK) inhibitor (StemCell Technologies, Grenoble, France). When hiPSCs reached proper confluence, they were differentiated into cardiomyocytes using previously described « Matrix sandwich » protocol. At day 20 ± 1 of differentiation, beating cardiomyocytes were manually dissected and isolated from non-beating cells. Briefly, cardiomyocytes were washed with phosphate-buffered saline (PBS) and treated with TrypLE Express (10x) (Thermo Fisher Scientific, Illkirch-Graffenstaden, France) for 5 min at 37 °C. The enzyme was inactivated by adding RPMI1640 medium containing 20% (vol/vol) KnockOut Serum Replacement (KSR) (Thermo Fisher Scientific, Illkirch-Graffenstaden, France). […]
The beating properties and the electrical field potentials of hiPS-CMs were evaluated with a CardioExcyte96 system. […] Meanwhile, cells were monitored to ensure the full stabilization of beating parameters until BeKm-1 was tested at various concentrations ([…]). Tfall and Trise were determined as the time between 10% and 90% of contraction or relaxation, respectively. Pulse width (PWx) was determined as the time corresponding to the width of the signal at 90% of relaxation. Electric field potentials (EFPs) were recorded using CardioExcyte96 system. For both contraction and EFPs, 10 sequences of 30 s of acquisition were analyzed before and after BeKm-1 addition. […]

## CC[C@H](C)[C@H](NC(=O)[C@H](CC(=O)O)NC(=O)[C@@H](NC(=O)[C@@H]1CCCN1C(=O)[C@@H](N)CCCNC(=N)N)[C@@H](C)O)C(=O)N[C@@H](CCCCN)C(=O)N[C@H]1CSSC[C@@H]2NC(=O)[C@H](CCCNC(=N)N)NC(=O)CNC(=O)[C@H](CC(N)=O)NC(=O)[C@H]([C@@H](C)O)NC(=O)[C@H](CCCCN)NC(=O)CNC(=O)[C@H](Cc3ccccc3)NC(=O)[C@H](CCCNC(=N)N)NC(=O)[C@H](CO)NC(=O)[C@H](CCCCN)NC(=O)[C@@H]3CSSC[C@@H](C(=O)N[C@@H](Cc4ccccc4)C(=O)O)NC(=O)[C@H](CC(=O)O)NC(=O)[C@H](CSSC[C@H](NC(=O)[C@H](CCC(N)=O)NC(=O)[C@H](Cc4ccc(O)cc4)NC(=O)[C@H](CO)NC(=O)[C@H](CCC(=O)O)NC(=O)[C@H](CO)NC1=O)C(=O)N[C@@H](Cc1ccccc1)C(=O)N1CCC[C@H]1C(=O)N[C@@H](C(C)C)C(=O)N3)NC(=O)[C@H](Cc1ccccc1)NC(=O)CNC(=O)[C@H](CC(N)=O)NC(=O)[C@H](C(C)C)NC2=O [BeKm-1] (H-RPTDIKCSESYQCFPVCKSRFGKTNGRCVNGFCDCF-OH; disulfide 7-28, 13-33, 17-35 (inferred); N-terminus and C-terminus assumed)
Human hERG channel
  IC50 at 13 min: 1.9 ± 0.3 nM
[1]; HEK293-hERG, Hill equation fit of dose-response curve
  Hill number, hERG current inhibition: 1.9
[1]; at maximally effective doses of the peptide (100 nM)
  maximal block of hERG currents (plateau): 90%
hiPS-CMs monolayer; 2 nM, 37 °C, vehicle 2.8 ± 0.1 s, n = 5, mean ± SEM
  EFP duration: 3.4 ± 0.2 s
hiPS-CMs monolayer; 2 nM, Figure 4A
  spontaneous depolarization in EFP: presence of spontaneous depolarization
hiPS-CMs monolayer; 100 nM
  EFP arrhythmic waveforms: sustained waveforms of tachyarrhythmia, and TdP-like polymorphic waveforms; also recorded: increase in beats frequency and fibrillation-like pattern
hiPS-CMs monolayer; 100 nM, 37 °C, vehicle 0.2 ± 0.1 Hz, n = 5, mean ± SEM, significant
  EFP frequency: 0.7 ± 0.1 Hz
